Measured values: ChEMBL document CHEMBL1201862, “PubChem BioAssay data set” (2004)
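Results reflect a 48-hour exposure of cells in 96-well plates to compound at five concentrations. GI50 = concentration required for 50% inhibition of growth.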 Calls of active or inactive are those of the source. No stated cut-off is given here; in the data, active = GI50 up to about 1.1 µM and inactive = higher.

How the values were obtained:
Assay in all cases: NCI tumour cell line growth inhibition, 48 h
HOP-62 = system: HOP-62
IGROV-1 = system: IGROV-1
NCI-H522 = system: NCI-H522
NCI-H460 = system: NCI-H460
K562 = system: K562
SW-620 = system: SW-620
UACC-62 = system: UACC-62
ACHN = system: ACHN
SN12C = system: SN12C
HCC 2998 = system: HCC 2998
CAKI-1 = system: CAKI-1
Malme-3M = system: Malme-3M
M14 = system: M14
SF-268 = system: SF-268
UO-31 = system: UO-31
KM12 = system: KM12
CCRF-CEM = system: CCRF-CEM
SK-MEL-28 = system: SK-MEL-28
COLO 205 = system: COLO 205
HCT-15 = system: HCT-15
A498 = system: A498
SNB-75 = system: SNB-75
OVCAR-8 = system: OVCAR-8
SK-MEL-2 = system: SK-MEL-2
SNB-78 = system: SNB-78
DMS-114 = system: DMS-114
M19-MEL = system: M19-MEL
OVCAR-4 = system: OVCAR-4
UACC-257 = system: UACC-257
HOP-18 = system: HOP-18
KM-20L2 = system: KM-20L2
DMS-273 = system: DMS-273
SK-OV-3 = system: SK-OV-3
SF-539 = system: SF-539
TK-10 = system: TK-10
DLD-1 = system: DLD-1
SNB-19 = system: SNB-19
LXFL 529 = system: LXFL 529
HL-60 = system: HL-60
SR = system: SR
NCI-H226 = system: NCI-H226
HCT-116 = system: HCT-116
SK-MEL-5 = system: SK-MEL-5
786-0 = system: 786-0
RPMI-8226 = system: RPMI-8226
RXF 393 = system: RXF 393
A549 = system: A549
U-251 = system: U-251
MOLT-4 = system: MOLT-4
NCI-H23 = system: NCI-H23
OVCAR-3 = system: OVCAR-3
SF-295 = system: SF-295
HOP-92 = system: HOP-92
HT-29 = system: HT-29
LOX IMVI = system: LOX IMVI
OVCAR-5 = system: OVCAR-5
EKVX = system: EKVX

Measured: GI50

CCOC(=O)NC/C=C/COC1CCCCO1 (configuration not stated)
> 100 µM: HCT-15
inactive: HOP-62 > 100 µM | IGROV-1 > 100 µM | NCI-H522 > 100 µM | NCI-H460 > 100 µM | K562 > 100 µM | SW-620 > 100 µM | UACC-62 > 100 µM | ACHN > 100 µM | SN12C > 100 µM | HCC 2998 > 100 µM | CAKI-1 > 100 µM | Malme-3M > 100 µM | M14 > 100 µM | SF-268 > 100 µM | UO-31 > 100 µM | KM12 > 100 µM | CCRF-CEM > 100 µM | SK-MEL-28 > 100 µM | COLO 205 > 100 µM | A498 > 100 µM | SNB-75 > 100 µM | OVCAR-8 > 100 µM | SK-MEL-2 > 100 µM | SNB-78 > 100 µM | DMS-114 > 100 µM | M19-MEL > 100 µM | OVCAR-4 > 100 µM | UACC-257 > 100 µM | HOP-18 > 100 µM | KM-20L2 > 100 µM | DMS-273 > 100 µM | SK-OV-3 > 100 µM | SF-539 > 100 µM | TK-10 > 100 µM | DLD-1 > 100 µM | SNB-19 > 100 µM | LXFL 529 > 100 µM | HL-60 > 100 µM | SR > 100 µM | NCI-H226 > 100 µM | HCT-116 > 100 µM | SK-MEL-5 > 100 µM | 786-0 > 100 µM | RPMI-8226 > 100 µM | RXF 393 > 100 µM | A549 > 100 µM | U-251 > 100 µM | MOLT-4 > 100 µM

Cc1c2cc[n+](C)cc2c(C)c2c1[nH]c1ccc(OCC(F)(F)F)cc12
active: HOP-62 0.771 µM | SN12C 0.164 µM | SF-268 0.286 µM | COLO 205 0.94 µM | OVCAR-8 0.467 µM | SF-295 0.275 µM | SF-539 1.07 µM | SNB-19 0.718 µM | LXFL 529 0.447 µM | NCI-H226 0.375 µM | 786-0 0.38 µM | U-251 0.275 µM
inactive: IGROV-1 2.77 µM | NCI-H522 1.57 µM | NCI-H23 1.49 µM | NCI-H460 2.25 µM | K562 3.83 µM | SW-620 3.01 µM | UACC-62 12.2 µM | HCC 2998 7.14 µM | Malme-3M 1.77 µM | KM12 3.41 µM | CCRF-CEM 7.31 µM | SK-MEL-2 4.62 µM | DMS-114 1.47 µM | M19-MEL 2.09 µM | OVCAR-4 4.61 µM | OVCAR-3 4.72 µM | HOP-18 3.72 µM | KM-20L2 3.98 µM | DMS-273 1.49 µM | SK-OV-3 3.08 µM | DLD-1 1.36 µM | SR 3.37 µM | HCT-116 3.37 µM | SK-MEL-5 1.73 µM | HOP-92 2.08 µM | HT-29 4.11 µM | A549 2.12 µM | MOLT-4 5.12 µM

CN(C)CCNC(=O)c1cc2ccccc2c2nc3ccccc3nc12
0.522 µM: HCT-15
active: K562 0.363 µM | SW-620 0.484 µM | ACHN 0.407 µM | SN12C 0.736 µM | HCC 2998 1.1 µM | Malme-3M 0.818 µM | SF-268 0.0617 µM | KM12 0.804 µM | COLO 205 0.828 µM | OVCAR-8 0.771 µM | LOX IMVI 0.413 µM | DMS-114 0.83 µM | M19-MEL 1.01 µM | OVCAR-4 0.792 µM | KM-20L2 0.946 µM | DMS-273 0.448 µM | SF-295 0.575 µM | SF-539 0.845 µM | DLD-1 0.447 µM | SR 0.163 µM | NCI-H226 0.841 µM | HCT-116 0.373 µM | RPMI-8226 0.522 µM | RXF 393 1.02 µM | HT-29 0.536 µM | A549 0.977 µM | U-251 0.986 µM | MOLT-4 0.153 µM
inactive: HOP-62 2.39 µM | IGROV-1 1.45 µM | NCI-H522 1.89 µM | NCI-H23 1.17 µM | UACC-62 2 µM | CAKI-1 2.67 µM | M14 1.75 µM | UO-31 1.8 µM | SK-MEL-28 1.56 µM | A498 1.14 µM | SNB-75 1.19 µM | OVCAR-5 1.94 µM | SK-MEL-2 1.37 µM | SNB-78 3.55 µM | OVCAR-3 2.1 µM | UACC-257 1.45 µM | HOP-18 5.82 µM | SK-OV-3 4.97 µM | TK-10 1.23 µM | SNB-19 1.43 µM | LXFL 529 1.43 µM | EKVX 2.06 µM | SK-MEL-5 1.79 µM | 786-0 2.43 µM
